Laboratory results published in patent publication US20070105877A1, “Pyrazolopyrimidines” (priority 2003, published 2007).

Target: PDE-5 (UniProt O76074)
Assay: In vitro PDE inhibitory activity against PDE5 (batch method or scintillation proximity assay)
Format: biochemical, human or rabbit
Conditions: representative preferred compounds
Text: The compounds of the invention are inhibitors of cyclic guanylate monophosphate (cGMP)-specific phosphodiesterase type 5 (PDE-5 inhibitors).
In particular, cGMP-specific PDE5 and cGMP-inhibited cAMP PDE3 can be obtained from human corpus cavernosum tissue, human platelets or rabbit platelets; cGMP-stimulated PDE2 was obtained from human corpus cavernosum; calcium/calmodulin (Ca/CAM)-dependent PDE1 from human cardiac ventricle; cAMP-specific PDE4 from human skeletal muscle; and photoreceptor PDE6 from bovine retina. Phosphodiesterases 7-11 can be generated from full length human recombinant clones transfected into SF9 cells.
In summary, for the scintillation proximity assay the effect of PDE inhibitors was investigated by assaying a fixed amount of enzyme in the presence of varying inhibitor concentrations and low substrate, (cGMP or cAMP in a 3:1 ratio unlabelled to [^3H]-labeled at a concentration of ˜⅓ Km or less) such that IC50≅Kl. The final assay volume was made up to 100 μl with assay buffer [20 mM Tris-HCl pH 7.4, 5 mM MgCl2, 1 mg/ml bovine serum albumin]. Reactions were initiated with enzyme, incubated for 30-60 min at 30° C. to give <30% substrate turnover and terminated with 50 μl yttrium silicate SPA beads (containing 3 mM of the respective unlabelled cyclic nucleotide for PDEs 9 and 11).

Row | Structure (SMILES) | IC50
1 | CCOCCn1nc(C(=O)NC)c2nc(N(C)C)nc(Nc3cc(C)ccn3)c21 [Example 14, 5-(dimethylamino)-1-(2-ethoxyethyl)-N-methyl-7-(4-methylpyridin-2-ylamino)-1H-pyrazolo[4,3-d]pyrimidine-3-carboxamide] | 260 pM
2 | CCOCCn1nc(C(=O)NCCNC)c2nc(N(C)C)nc(Nc3cc(C)ccn3)c21 [Example 16] | 400 pM
3 | CCOCCn1nc(C(=O)NC2CCNCC2)c2nc(N(C)C)nc(Nc3cc(C)ccn3)c21 [Example 18] | 60 pM
4 | CCOCCn1nc(C(=O)NCCOC)c2nc(N(C)C)nc(Nc3cc(C)ccn3)c21 [Example 19, 5-(dimethylamino)-1-(2-ethoxyethyl)-N-(2-methoxyethyl)-7-(4-methylpyridin-2-yl-amino)-1H-pyrazolo[4,3-d]pyrimidine-3-carboxamide] | 90 pM
5 | CCOCCn1nc(C(=O)N[C@H](C)C(=O)O)c2nc(N(C)C)nc(Nc3cc(C)ccn3)c21 [Example 22, (2R)-2-{[5-(dimethylamino)-1-(2-ethoxyethyl)-7-(4-methylpyridin-2-ylamino)-1H-pyrazolo[4,3-d]pyrimidine-3-carbonyl]amino}propionic acid] | 20 pM
6 | CCOCCn1nc(C(=O)NC)c2nc(N3CCN[C@H](C)C3)nc(Nc3cc(C)ccn3)c21 [Example 30, 1-(2-ethoxyethyl)-N-methyl-5-((3R)-3-methylpiperazin-1-yl)-7-(4-methylpyridin-2-yl-amino)-1H-pyrazolo[4,3-d]pyrimidine-3-carboxamide] | 1650 pM
7 | CCNC(=O)c1nn(CCOCC)c2c(Nc3cc(C)ccn3)nc(N3CCN[C@H](C)C3)nc12 [Example 32] | 730 pM
8 | CCOCCn1nc(C(=O)NCCOC)c2nc(NC)nc(Nc3cc(C)ccn3)c21 [Example 56, 1-(2-ethoxyethyl)-N-(2-methoxyethyl)-5-(methylamino)-7-(4-methylpyridin-2-ylamino)-1H-pyrazolo[4,3-d]pyrimidine-3-carboxamide] | 1630 pM
9 | CCOCCn1nc(C(=O)NC)c2nc(N(C)CCO)nc(Nc3cc(C)ccn3)c21 [Example 61] | 120 pM
10 | CCOCCn1nc(C(=O)NC)c2nc(N3CCN[C@H](C)C3)nc(NC3CCCCC3)c21 [Example 71, 7-(cyclohexylamino)-1-(2-ethoxyethyl)-N-methyl-5-((3R)-3-methylpiperazin-1-yl)-1H-pyrazolo[4,3-d]pyrimidine-3-carboxamide] | 2950 pM
11 | CCOCCn1nc(C(=O)NC)c2nc(N(C)[C@H]3CCN(C)C3)nc(Nc3cc(C)ccn3)c21 [Example 73, 1-(2-Ethoxyethyl)-N-methyl-5-[N-methyl-N-((3S)-1-methylpyrrolidin-3-yl)amino]-7-(4-methylpyridin-2-ylamino)-1H-pyrazolo[4,3-d]pyrimidine-3-carboxamide] | 420 pM

More lines, in order of falling IC50, values ahead:

Row | IC50 | Structure (SMILES)
12 | 1880 pM | CCOCCn1nc(C(=O)NC)c2nc(NCCOC)nc(Nc3cc(C)ccn3)c21 [Example 62, 1-(2-ethoxyethyl)-5-((2-methoxyethyl)amino)-N-methyl-7-(4-methylpyridin-2-ylamino)-1H-pyrazolo[4,3-d]pyrimidine-3-carboxamide]
13 | 1310 pM | CCNc1nc(Nc2cc(C)ccn2)c2c(n1)c(C(=O)NC)nn2CCOCC [Example 50, 1-(2-Ethoxyethyl)-5-(ethylamino)-N-methyl-7-(4-methylpyridin-2-ylamino)-1H-Pyrazolo[4,3-d]pyrimidine-3-carboxamide]
14 | 570 pM | CCNc1nc(Nc2cc(C)ccn2)c2c(n1)c(C(=O)NCCOC)nn2CCOCC [Example 60, 1-(2-ethoxyethyl)-5-(ethylamino)-N-(2-methoxyethyl)-7-(4-methylpyridin-2-ylamino)-1H-pyrazolo[4,3-d]pyrimidine-3-carboxamide]
15 | 333 pM | CCNC(=O)c1nn(CCOCC)c2c(Nc3cc(C)ccn3)nc(NCC)nc12 [Example 8, 1-(2-ethoxyethyl)-N-ethyl-5-(ethylamino)-7-(4-methylpyridin-2-ylamino)-1H-pyrazolo[4,3-d]pyrimidine-3-carboxamide]
16 | 240 pM | CCOCCn1nc(C(=O)NCCN(C)C)c2nc(N(C)C)nc(Nc3cc(C)ccn3)c21 [Example 17, 5-(dimethylamino)-N-(2-(dimethylamino)ethyl)-1-(2-ethoxyethyl)-7-(4-methylpyridin-2-ylamino)-1H-pyrazolo[4,3-d]pyrimidine-3-carboxamide]
17 | 130 pM | CCOCCn1nc(C(=O)NCCO)c2nc(N(C)C)nc(Nc3cc(C)ccn3)c21 [Example 58, 5-(dimethylamino)-1-(2-ethoxyethyl)-N-(2-hydroxyethyl)-7-(4-methylpyridin-2-yl-amino)-1H-pyrazolo[4,3-d]pyrimidine-3-carboxamide]
18 | 40 pM | CCOCCn1nc(C(=O)NCCC(=O)O)c2nc(N(C)C)nc(Nc3cc(C)ccn3)c21 [Example 23, 3-{[5-(dimethylamino)-1-(2-ethoxyethyl)-7-(4-methylpyridin-2-ylamino)-1H-pyrazolo[4,3-d]pyrimidine-3-carbonyl]amino}propionic acid]
